Measured values from patent US10344025B2, “GLS1 inhibitors for treating disease” (Board of Regents, The University of Texas System, priority 2014, dated 2019).
Where two headings read alike, the source gives them in different places.

Columns and labels:
[1] = molecular target: purified recombinant human GAC (GLS1) (Homo sapiens (Human), UniProt O94925); test: GLS1 Enzymatic Activity Assay (dual-coupled enzymatic assay, resorufin/Amplex UltraRed readout); type: biochemical;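 also: glutamate from GAC coupled via glutamate oxidase and peroxidase to resorufin, read as fluorescence (ex 530, em 590 nm) kinetically or at 20 min, four-parameter logistic IC50 fit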
A549 cells = test: Proliferation Assay (A549 viability, Cell Titer Fluor, 72 hours); type: cell-based
Outline: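 Cell Titer Fluor fluorescence after 72 h compound treatment (0.5% DMSO, 37 °C, 5% CO2) of A549 cells plated 24 h earlier at 1000/well. Four-parameter logistic fitting gave IC50.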

purified recombinant human GAC (GLS1), sequence (O94925 other isoform, or with tags, fused parts or gaps): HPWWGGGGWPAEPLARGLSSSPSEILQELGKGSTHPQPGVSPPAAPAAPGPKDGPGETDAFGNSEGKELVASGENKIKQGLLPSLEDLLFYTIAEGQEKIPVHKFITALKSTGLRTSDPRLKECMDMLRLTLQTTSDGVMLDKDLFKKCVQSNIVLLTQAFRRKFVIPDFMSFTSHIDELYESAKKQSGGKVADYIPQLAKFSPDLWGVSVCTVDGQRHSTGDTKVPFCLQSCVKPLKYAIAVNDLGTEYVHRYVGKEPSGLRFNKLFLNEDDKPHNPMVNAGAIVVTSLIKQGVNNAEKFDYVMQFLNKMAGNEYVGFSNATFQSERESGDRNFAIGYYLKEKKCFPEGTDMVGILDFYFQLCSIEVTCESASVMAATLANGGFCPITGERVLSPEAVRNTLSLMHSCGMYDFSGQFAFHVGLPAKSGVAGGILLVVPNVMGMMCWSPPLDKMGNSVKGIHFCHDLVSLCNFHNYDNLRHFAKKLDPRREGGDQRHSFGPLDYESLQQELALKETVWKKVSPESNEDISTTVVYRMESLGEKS

Compound | IC50 [1] [nM] | EC50 (A549 cells; Homo sapiens, A549, 72 h) [nM] | EC50 (A549 cells) [nM]
O=C(NCc1cncc(C(F)(F)F)c1)c1cn(CC(F)CCc2nnc(C(=O)NCc3cccc(OC(F)(F)F)c3)s2)nn1 (centres unmarked) [Example 482, 5-{3-fluoro-4-[4-({[5-(trifluoromethyl)pyridin-3-yl]methyl}carbamoyl)-1H-1,2,3-triazol-1-yl]butyl}-N-{[3-(trifluoromethoxy)phenyl]methyl}-1,3,4-thiadiazole-2-carboxamide] | < 100 | < 100 | 
O=C(NCc1cncc(C(F)(F)F)c1)c1cn(CCC(F)Cn2cc(C(=O)NCc3cccc(OC(F)(F)F)c3)nn2)nn1 (centres unmarked) [Example 478, 1-{3-fluoro-4-[4-({[3-(trifluoromethoxy)phenyl]methyl}carbamoyl)-1H-1,2,3-triazol-1-yl]butyl}-N-{[5-(trifluoromethyl)pyridin-3-yl]methyl}-1H-1,2,3-triazole-4-carboxamide] | < 100 | < 100 | 
O=C(Cc1cc(OC(F)(F)F)ccc1F)Nc1ccc(CCCCn2cc(C(=O)NC3CC3)nn2)nn1 [Example 583, N-cyclopropyl-1-(4-(6-(2-(2-fluoro-5-(trifluoromethoxy)phenyl)acetamido)pyridazin-3-yl)butyl)-1H-1,2,3-triazole-4-carboxamide] | < 100 | < 100 | 
CNC(=O)c1cn(CC(F)CCc2ccc(NC(=O)Cc3cc(C4CCOCC4)ccn3)nn2)nn1 (centres unmarked) [Example 253, 1-(2-fluoro-4-(6-(2-(4-(tetrahydro-2H-pyran-4-yl)pyridin-2-yl)acetamido)pyridazin-3-yl)butyl)-N-methyl-1H-1,2,3-triazole-4-carboxamide] | < 100 | < 100 | 
CNC(=O)c1cn(CCC(F)Cn2cc(NC(=O)Cc3cccc(OC(F)(F)F)c3)nn2)nn1 (centres unmarked) [Example 524, 1-[3-fluoro-4-(4-{2-[3-(trifluoromethoxy)phenyl]acetamido}-1H-1,2,3-triazol-1-yl)butyl]-N-methyl-1H-1,2,3-triazole-4-carboxamide] | < 100 | 100 to 500 | 
COc1ccc(CNC(=O)c2cn(CCCCc3nnc(NC(=O)Cc4cccc(OC(F)(F)F)c4)s3)nn2)c(OC)c1 [Example 22, N-[(2,4-dimethoxyphenyl)methyl]-1-[4-(5-{2-[3-(trifluoromethoxy)phenyl]acetamido}-1,3,4-thiadiazol-2-yl)butyl]-1H-1,2,3-triazole-4-carboxamide] | < 100 | 100 to 500 | 
Cc1ccc(CNC(=O)c2cn(CCCCn3cc(NC(=O)Cc4ccc(C)nc4)nn3)nn2)cn1 [Example 316, 1-(4-{4-[2-(6-methylpyridin-3-yl)acetamido]-1H-1,2,3-triazol-1-yl}butyl)-N-[(6-methylpyridin-3-yl)methyl]-1H-1,2,3-triazole-4-carboxamide] | < 100 | 500 to 5000 | 
CNC(=O)c1nnc(CCCCc2ccc(NC(=O)Cc3cc(OC(F)(F)F)ccc3F)nn2)s1 [Example 598, 5-(4-(6-(2-(2-fluoro-5-(trifluoromethoxy)phenyl)acetamido)pyridazin-3-yl)butyl)-N-methyl-1,3,4-thiadiazole-2-carboxamide] | < 100 | < 100 | 
O=C(NCc1cccc(OC(F)(F)F)c1)c1cn(CCCCn2cc(C(=O)NCc3cnccn3)nn2)nn1 [Example 126, N-(pyrazin-2-ylmethyl)-1-{4-[4-({[3-(trifluoromethoxy)phenyl]methyl}carbamoyl)-1H-1,2,3-triazol-1-yl]butyl}-1H-1,2,3-triazole-4-carboxamide] | 100 to 500 | 100 to 500 | 
CNC(=O)c1cn(CCC(F)Cn2cc(C(=O)NCc3ccccc3)nn2)nn1 (centres unmarked) [Example 165, 1-{4-[4-(benzylcarbamoyl)-1H-1,2,3-triazol-1-yl]-3-fluorobutyl}-N-methyl-1H-1,2,3-triazole-4-carboxamide] | 100 to 500 | 500 to 5000 | 
Cc1ccc(CC(=O)Nc2cn(CCCCn3cc(C(=O)NCC4CCCCC4)nn3)nn2)cn1 [Example 312, N-(cyclohexylmethyl)-1-(4-{4-[2-(6-methylpyridin-3-yl)acetamido]-1H-1,2,3-triazol-1-yl}butyl)-1H-1,2,3-triazole-4-carboxamide] | 100 to 500 | 500 to 5000 | 
COCCNC(=O)c1cn(CCCCc2ccc(NC(=O)Cc3cc(OC(F)(F)F)ccc3F)nn2)nn1 [Example 584, 1-(4-(6-(2-(2-fluoro-5-(trifluoromethoxy)phenyl)acetamido)pyridazin-3-yl)butyl)-N-(2-methoxyethyl)-1H-1,2,3-triazole-4-carboxamide] | < 100 | 100 to 500 | 
Cc1ccc(CNC(=O)c2cn(CCCCn3cc(NC(=O)CC4CCCC4)nn3)nn2)cn1 [Example 317, 1-{4-[4-(2-cyclopentylacetamido)-1H-1,2,3-triazol-1-yl]butyl}-N-[(6-methylpyridin-3-yl)methyl]-1H-1,2,3-triazole-4-carboxamide] | 100 to 500 | 100 to 500 | 
O=C(NCc1cccc(OC(F)(F)F)c1)c1cn(CCC(F)Cn2cc(C(=O)N[C@@H](CO)c3ccccc3)nn2)nn1 (stereo partly drawn) [Example 461, 1-{2-fluoro-4-[4-({[3-(trifluoromethoxy)phenyl]methyl}carbamoyl)-1H-1,2,3-triazol-1-yl]butyl}-N-[(1R)-2-hydroxy-1-phenylethyl]-1H-1,2,3-triazole-4-carboxamide] | 100 to 500 | 500 to 5000 | 
O=C(NCc1cccc(F)c1)c1cn(CCC(F)Cn2cc(C(=O)NCc3cc(C(F)(F)F)ccn3)nn2)nn1 (centres unmarked) [Example 466, 1-[2-fluoro-4-(4-{[(3-fluorophenyl)methyl]carbamoyl}-1H-1,2,3-triazol-1-yl)butyl]-N-{[4-(trifluoromethyl)pyridin-2-yl]methyl}-1H-1,2,3-triazole-4-carboxamide] | < 100 | < 100 | 
O=C(Cc1ccccn1)Nc1nnc(CCC(F)Cn2cc(C(=O)NCc3cncc(C(F)(F)F)c3)nn2)s1 (centres unmarked) [Example 571, 1-(2-fluoro-4-(5-(2-(pyridin-2-yl)acetamido)-1,3,4-thiadiazol-2-yl)butyl)-N-((5-(trifluoromethyl)pyridin-3-yl)methyl)-1H-1,2,3-triazole-4-carboxamide] | < 100 | < 100 | 
CNC(=O)c1cn(C[C@@H](F)CCc2nnc(NC(=O)Cc3cccc(OC(F)(F)F)c3)s2)nn1 [Example 194, (S)-1-(2-fluoro-4-(5-(2-(3-(trifluoromethoxy)phenyl)acetamido)-1,3,4-thiadiazol-2-yl)butyl)-N-methyl-1H-1,2,3-triazole-4-carboxamide] | < 100 |  | < 100
O=C(Cc1cc(OC(F)(F)F)ccc1F)Nc1cn(CC(F)CCn2cc(C(=O)NCc3ccc(C(F)(F)F)nc3)nn2)nn1 (centres unmarked) [Example 412, 1-[3-fluoro-4-(4-{2-[2-fluoro-5-(trifluoromethoxy)phenyl]acetamido}-1H-1,2,3-triazol-1-yl)butyl]-N-{[6-(trifluoromethyl)pyridin-3-yl]methyl}-1H-1,2,3-triazole-4-carboxamide] | < 100 | < 100 | 
Cc1ccc(CNC(=O)c2cn(CC(F)CCc3nnc(C(=O)NCc4cc(OC(F)(F)F)ccc4F)s3)nn2)cn1 (centres unmarked) [Example 447, 5-[3-fluoro-4-(4-{[(6-methylpyridin-3-yl)methyl]carbamoyl}-1H-1,2,3-triazol-1-yl)butyl]-N-{[2-fluoro-5-(trifluoromethoxy)phenyl]methyl}-1,3,4-thiadiazole-2-carboxamide] | < 100 | < 100 | 
